According to ChEMBL document CHEMBL1201862, “PubChem BioAssay data set” (2004):
Counter-ions that a name gives are not always drawn.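 Five compound concentrations were applied to cells in 96-well plates for 48 hours; endpoints were derived by simple linear interpolation of the resulting dose-response curve. GI50 marks 50% less growth.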 The source made the active and inactive calls. Rule as the data show it: active = GI50 up to about 1.1 µM and inactive = higher. Non-standard residues stand in square brackets, D forms with d. Residues, ends and D or L forms follow the SMILES beside them.

How the values were obtained:
Test in all cases: inhibition of tumour cell growth, NCI panel, 48 h
SN12C = tested on: SN12C
SF-268 = tested on: SF-268
SNB-19 = tested on: SNB-19
HT-29 = tested on: HT-29
UACC-62 = tested on: UACC-62
MDA-MB-231 = tested on: MDA-MB-231
NCI-H460 = tested on: NCI-H460
LOX IMVI = tested on: LOX IMVI
SF-295 = tested on: SF-295
HL-60 = tested on: HL-60
KM12 = tested on: KM12
UACC-257 = tested on: UACC-257
HOP-62 = tested on: HOP-62
IGROV-1 = tested on: IGROV-1
HCC 2998 = tested on: HCC 2998
OVCAR-4 = tested on: OVCAR-4
SK-OV-3 = tested on: SK-OV-3
HCT-116 = tested on: HCT-116
SR = tested on: SR
RXF 393 = tested on: RXF 393

Row | SMILES | GI50 (SN12C) | GI50 (SF-268) | GI50 (SNB-19) | GI50 (HT-29) | GI50 (UACC-62) | GI50 (MDA-MB-231) | GI50 (NCI-H460) | GI50 (LOX IMVI) | GI50 (SF-295) | GI50 (HL-60) | GI50 (KM12) | GI50 (UACC-257) | GI50 (HOP-62) | GI50 (IGROV-1) | GI50 (HCC 2998) | GI50 (OVCAR-4) | GI50 (SK-OV-3) | GI50 (HCT-116) | GI50 (SR) | GI50 (RXF 393)
1 | CC(C)OCC(O)COc1ccc2ccc(=O)oc2c1 (stereo not drawn) | > 100 µM (inactive) | > 100 µM (inactive) | > 100 µM (inactive) | > 100 µM (inactive) | > 100 µM (inactive) | > 100 µM (inactive) | > 100 µM (inactive) | > 100 µM (inactive) | > 100 µM (inactive) | > 100 µM (inactive) | > 100 µM (inactive) | > 100 µM (inactive) | > 100 µM (inactive) | > 100 µM (inactive) | > 100 µM (inactive) | > 100 µM (inactive) | > 100 µM (inactive) | > 100 µM (inactive) | – | –
2 | CCCCCCn1c(SC)nc(COC(=O)NC)c1COC(=O)NC | 16.7 µM (inactive) | 14.6 µM (inactive) | 16.1 µM (inactive) | 20 µM (inactive) | 14.8 µM (inactive) | 17.6 µM (inactive) | 18.1 µM (inactive) | 21.3 µM (inactive) | 20.2 µM (inactive) | 19.6 µM (inactive) | 18.2 µM (inactive) | 19.4 µM (inactive) | 19.6 µM (inactive) | 15.3 µM (inactive) | – | 9.57 µM (inactive) | 19 µM (inactive) | 17.8 µM (inactive) | 19.7 µM (inactive) | –
3 | COc1ccc(NC(=O)CC(=O)N2N=C(C)C(/N=N/c3ccc(C(=O)O)cc3)C2=O)cc1 (stereo not drawn) | > 100 µM (inactive) | > 100 µM (inactive) | > 100 µM (inactive) | > 100 µM (inactive) | > 100 µM (inactive) | > 100 µM (inactive) | > 100 µM (inactive) | 94 µM (inactive) | > 100 µM (inactive) | > 100 µM (inactive) | 71.8 µM (inactive) | > 100 µM (inactive) | > 100 µM (inactive) | > 100 µM (inactive) | > 100 µM (inactive) | > 100 µM (inactive) | – | > 100 µM (inactive) | – | > 100 µM (inactive)
4 | Cn1c(N)c(/C=C/C(=O)Oc2ccccc2)c(=O)n(C)c1=O | 45.6 µM (inactive) | 31.7 µM (inactive) | 59.3 µM (inactive) | > 100 µM (inactive) | > 100 µM (inactive) | > 100 µM (inactive) | > 100 µM (inactive) | > 100 µM (inactive) | 33.7 µM (inactive) | > 100 µM (inactive) | > 100 µM (inactive) | > 100 µM (inactive) | 19.1 µM (inactive) | 67.9 µM (inactive) | > 100 µM (inactive) | > 100 µM (inactive) | 56.5 µM (inactive) | > 100 µM (inactive) | – | 44.2 µM (inactive)
5 | C/C1=C\CC[C@@]2(C)O[C@@H]2C[C@@H](C2(C)CO2)CC/C(C)=C/CC1 (stereo partly drawn) | 17.7 µM (inactive) | 17.1 µM (inactive) | 19.4 µM (inactive) | 34.4 µM (inactive) | 16 µM (inactive) | 18.5 µM (inactive) | 19.1 µM (inactive) | 14.4 µM (inactive) | 22.1 µM (inactive) | 27.1 µM (inactive) | 17.5 µM (inactive) | 36.8 µM (inactive) | 30.3 µM (inactive) | 32.9 µM (inactive) | 15 µM (inactive) | 37.4 µM (inactive) | 49.3 µM (inactive) | 20.4 µM (inactive) | 33 µM (inactive) | –
6 | O=C(O)CC[N+]1=CCC(c2ccccc2)(c2ccccc2)O1 | > 100 µM (inactive) | > 100 µM (inactive) | > 100 µM (inactive) | > 100 µM (inactive) | > 100 µM (inactive) | > 100 µM (inactive) | > 100 µM (inactive) | – | > 100 µM (inactive) | – | – | > 100 µM (inactive) | > 100 µM (inactive) | > 100 µM (inactive) | > 100 µM (inactive) | > 100 µM (inactive) | > 100 µM (inactive) | > 100 µM (inactive) | – | > 100 µM (inactive)
7 | CCN(CC)CCOCCn1c2c(c3ccccc31)CCCC2 | 18.3 µM (inactive) | 36.1 µM (inactive) | – | 23.7 µM (inactive) | 17 µM (inactive) | 18 µM (inactive) | 22.8 µM (inactive) | 19.5 µM (inactive) | 38.5 µM (inactive) | 9.73 µM (inactive) | 34.5 µM (inactive) | 21.9 µM (inactive) | 17.2 µM (inactive) | 18.9 µM (inactive) | 16.8 µM (inactive) | 26 µM (inactive) | 27.4 µM (inactive) | 15.8 µM (inactive) | 16.3 µM (inactive) | –
8 | CC1(C)CCC[C@]2(C)[C@@H]1CC[C@@]13O[C@@H]1C1=C(CO)C(=O)OC1=C[C@@H]23 | 12.9 µM (inactive) | 15.2 µM (inactive) | 13.6 µM (inactive) | 14 µM (inactive) | 13.5 µM (inactive) | 31.1 µM (inactive) | 18.2 µM (inactive) | – | 16.9 µM (inactive) | – | 11.9 µM (inactive) | 18.2 µM (inactive) | 25.6 µM (inactive) | 5.68 µM (inactive) | 18.9 µM (inactive) | 19.2 µM (inactive) | 20.6 µM (inactive) | 1.44 µM (inactive) | – | 19.9 µM (inactive)
9 | COC(=O)c1cc2/c(=N/O)c3ccccc3sc2o1 | > 100 µM (inactive) | > 100 µM (inactive) | > 100 µM (inactive) | > 100 µM (inactive) | > 100 µM (inactive) | > 100 µM (inactive) | 61 µM (inactive) | > 100 µM (inactive) | > 100 µM (inactive) | > 100 µM (inactive) | > 100 µM (inactive) | > 100 µM (inactive) | > 100 µM (inactive) | > 100 µM (inactive) | > 100 µM (inactive) | > 100 µM (inactive) | > 100 µM (inactive) | > 100 µM (inactive) | > 100 µM (inactive) | –
10 | CC(C)COP(C)(=O)C(N)(C(F)(F)F)C(F)(F)F (stereo not drawn) | > 100 µM (inactive) | > 100 µM (inactive) | – | > 100 µM (inactive) | > 100 µM (inactive) | > 100 µM (inactive) | – | > 100 µM (inactive) | > 100 µM (inactive) | > 100 µM (inactive) | > 100 µM (inactive) | > 100 µM (inactive) | > 100 µM (inactive) | > 100 µM (inactive) | > 100 µM (inactive) | > 100 µM (inactive) | > 100 µM (inactive) | > 100 µM (inactive) | > 100 µM (inactive) | –
11 | CC(=O)O[C@H]1CC2C(C3CCC(C(C)CCC(N)=O)[C@]31C)[C@H](OC(C)=O)C[C@@H]1CC3(CC[C@]21C)OOC1(CC[C@]2(C)C4C[C@H](OC(C)=O)[C@]5(C)C(C(C)CCC(N)=O)CCC5C4[C@H](OC(C)=O)C[C@@H]2C1)OO3 (stereo partly drawn) | 1.79 µM (inactive) | 1.75 µM (inactive) | 2.61 µM (inactive) | 1.63 µM (inactive) | – | 1.51 µM (inactive) | 1.69 µM (inactive) | 1.4 µM (inactive) | 1.53 µM (inactive) | 1.45 µM (inactive) | 1.66 µM (inactive) | 1.49 µM (inactive) | 2.01 µM (inactive) | 1.69 µM (inactive) | 0.966 µM (active) | 1.83 µM (inactive) | 2.06 µM (inactive) | 1.33 µM (inactive) | – | 1.61 µM (inactive)
12 | Nc1cc(OCC2CCCCC2)nc(N)n1 | > 100 µM (inactive) | > 100 µM (inactive) | > 100 µM (inactive) | > 100 µM (inactive) | > 100 µM (inactive) | > 100 µM (inactive) | > 100 µM (inactive) | > 100 µM (inactive) | > 100 µM (inactive) | > 100 µM (inactive) | > 100 µM (inactive) | 76.9 µM (inactive) | > 100 µM (inactive) | 67.9 µM (inactive) | > 100 µM (inactive) | > 100 µM (inactive) | > 100 µM (inactive) | > 100 µM (inactive) | – | > 100 µM (inactive)
13 | CSCC[C@H](NC(=O)[C@@H](N)CC(N)=O)C(=O)N[C@@H](Cc1c[nH]c2ccccc12)C(=O)N[C@@H](CCC(N)=O)C(=O)N[C@@H](CCC(=O)O)C(=O)N[C@H](C(=O)NCC(=O)N[C@@H](CCCCN)C(=O)N[C@H](C)C(=O)O)C(C)C (H-NMWQEVGK[dA]-OH) | > 100 µM (inactive) | > 100 µM (inactive) | > 100 µM (inactive) | > 100 µM (inactive) | > 100 µM (inactive) | > 100 µM (inactive) | > 100 µM (inactive) | > 100 µM (inactive) | > 100 µM (inactive) | > 100 µM (inactive) | > 100 µM (inactive) | > 100 µM (inactive) | > 100 µM (inactive) | > 100 µM (inactive) | > 100 µM (inactive) | > 100 µM (inactive) | > 100 µM (inactive) | > 100 µM (inactive) | – | > 100 µM (inactive)
14 | N=C(N)c1ccc(-c2ccc(-c3ccc(C(=N)N)cc3)o2)cc1 [FURAMIDINE HYDROCHLORIDE] | 12.6 µM (inactive) | 45.3 µM (inactive) | 51.9 µM (inactive) | 24.5 µM (inactive) | 25.6 µM (inactive) | > 100 µM (inactive) | 17.6 µM (inactive) | – | 41.4 µM (inactive) | 77.8 µM (inactive) | 22.5 µM (inactive) | 27.9 µM (inactive) | 29 µM (inactive) | 46.3 µM (inactive) | – | > 100 µM (inactive) | > 100 µM (inactive) | 28.8 µM (inactive) | 29.8 µM (inactive) | 32 µM (inactive)
